Data on 23 compounds can be found in patent US7772245B2, “Inhibitors of histone deacetylase” (Miikana Therapeutics, Inc., priority 2005, dated 2010).

One assay deals with HDAC. Description: In vitro fluorescent histone deacetylase assay (Biomol HDAC fluorescent activity kit, HeLa cell nuclear extract). As to conditions: 100 μM compound; HeLa cell nuclear extract as source of HDAC activity; 50 μM substrate, 10 min at room temperature. In kind it is biochemical. On the procedure:
Histone deacetylase (HDAC) activity assays were performed using the HDAC fluorescent activity assay/drug discovery kit (Biomol Research Laboratories, Plymouth Meeting, Pa.) essentially according to the manufacturer's instructions. The included HeLa cell nuclear extract, which contains a mosaic of HDAC enzymes and other nuclear factors, was used as the source of HDAC activity. The final substrate concentration in the assay mixture was 50 μM. The reaction was allowed to proceed for 10 min at room temperature before stopping the reaction. Test compounds were prepared as 20 mM stock solutions in DMSO (Molecular Biology grade, Sigma-Aldrich Co., St. Louis, Mo.) and stored at −70° C. Serial dilutions of test compounds were prepared in assay buffer immediately prior to testing. DMSO was determined in a separate trial to have no significant effect on the activity of this assay at concentrations up to 5%; the final DMSO concentration in the wells was no more than 2% and therefore DMSO effects were safely neglected. Assays were performed in white polystyrene 96-well half-area assay plates (Corning, Corning, N.Y.) and measured on a Wallace 1420 fluorescent plate reader (Wallac Oy, Turku, Finland) with an excitation wavelength of 355 nm, an emission wavelength of 460 nm, and a 1 sec signal averaging time.

A further assay has as its system HCT116 cells. As to the kind of experiment: Whole cell cytotoxicity assay: Sulforhodamine B. In kind it is cell-based. As to conditions: Homo sapiens, HCT-116; 100 μM compound; 48 hours incubation with drug; Sulforhodamine B staining; read-out: % Inhibition of HCT116 cell growth @ 100 μM. On the procedure: [The source words this procedure for another cell line and reports this cell line under the same test.] The following procedure can be found on the Developmental Therapeutics Program NCl/NIH web site at http://dtp.nci.nih.gov/brancehes/btb/ivclsp.html. • 1. Human tumor cell lines of HT29, A549 and MCF7 are grown in DMEM containing 10% fetal bovine serum and 2 mM L-glutamine. Cells are plated in a 96 well plate at a density of 5000 cells per well in 100 μL of growth medium and incubated at 37° C., 5% CO2, for 24 hours prior to the addition of experimental compounds. • 2. Experimental drugs are solubilized in DMSO for a final concentration of 20 mM immediately prior to use. Drugs are further diluted in growth media for a total of nine drug concentrations and a growth control. At the 24 hour time point, one plate of cells is fixed in situ with TCA as a measurement of the cell population at time zero, or the time of drug addition. • 3. The plates are further incubated with drug for an additional 48 hours. • 4. The cells are fixed in situ by gently aspirating off the culture media and then adding 50 μL of ice cold 10% TCA per well and incubated at 4° C. for 60 minutes. The plates are washed with tap water five times and allowed to air dry for 5 minute. • 5. 50 μL of a 0.4% (w/v) Sulforhodamine B solution in 1% (v/v) acetic acid is added per well and incubated for 30 minutes at room temperature. • 6. Following staining, plates are washed five times with 1% acetic acid to remove any unbound dye and then allowed to air dry for 5 minutes. • 7. Stain is solubilized with 100 μL of 10 mM Tris pH 10.5 per well and placed on an orbital rotator for 5 minutes. • 8. Absorbance is read at 570 nm.

For `CSc1cccc(-c2ccc3[nH]c4c(c3c2)CN(c2ncc(C(=O)NO)cn2)CC4)c1` [Example 49, N-hydroxy-2-{8-[3-(methylthio)phenyl]-1,3,4,5-tetrahydro-2H-pyrido[4,3-b]indol-2-yl}pyrimidine-5-carboxamide], the “% Inhibition of HDAC @ 100 μM” value in the assay with HDAC is reported as 99.9%. For the same compound, the inhibition at 100 µM with HCT116 cells was 99.3%.
`CC(=O)Nc1ccc(-c2ccc3[nH]c4c(c3c2)CN(c2ncc(C(=O)NO)cn2)CC4)cc1` [Example 50, N-hydroxy-2-{8-[4-(N-acetamido)phenyl]-1,3,4,5-tetrahydro-2H-pyrido[4,3-b]indol-2-yl}pyrimidine-5-carboxamide]: the “% Inhibition of HDAC @ 100 μM” value in the assay on HDAC is given as 99.7%. For the same compound, the inhibition at 100 µM with HCT116 cells was 89.1%.
For `O=C(NO)c1cnc(N2CCc3[nH]c4ccc(-c5cncnc5)cc4c3C2)nc1` [Example 51, N-hydroxy-2-{8-(pyrimidin-5-yl)-1,3,4,5-tetrahydro-2H-pyrido[4,3-b]indol-2-yl}pyrimidine-5-carboxamide], in that order: 99.8% and 98.7%.
For `O=C(NO)c1cnc(N2CCc3[nH]c4ccc(-c5ccoc5)cc4c3C2)nc1` [Example 52, N-hydroxy-2-{8-[fur-3-yl]-1,3,4,5-tetrahydro-2H-pyrido[4,3-b]indol-2-yl}pyrimidine-5-carboxamide], in that order: 99.7% and 98.9%.
For `O=C(NO)c1cnc(N2CCc3[nH]c4ccc(-c5ccc[nH]5)cc4c3C2)nc1` [Example 53, N-hydroxy-2-{8-[1H-pyrrol-2-yl]-1,3,4,5-tetrahydro-2H-pyrido[4,3-b]indol-2-yl}pyrimidine-5-carboxamide], in that order: 100% and 96.4%.
Turning to `Cc1ccc2[nH]c3c(c2c1Cl)CN(c1ncc(C(=O)NO)cn1)CC3` [Example 54, N-hydroxy-2-(9-chloro-8-methyl-1,3,4,5-tetrahydro-2H-pyrido[4,3-b]indol-2-yl)pyrimidine-5-carboxamide], in the assay on HDAC, the “% Inhibition of HDAC @ 100 μM” value came to 99.5%. For the same compound, in the assay on HCT116 cells, the inhibition at 100 µM was 98.9%.
For `O=C(NO)c1cnc(N2CCc3[nH]c4ccc(C(F)(F)F)cc4c3C2)nc1` [Example 55, N-hydroxy-2-(8-trifluoromethyl-1,3,4,5-tetrahydro-2H-pyrido[4,3-b]indol-2-yl)pyrimidine-5-carboxamide], in the assay on HDAC, the “% Inhibition of HDAC @ 100 μM” value came to 99.3%. Moreover, the inhibition at 100 µM in the assay with HCT116 cells worked out at 99.1%.
For `Cc1cc2[nH]c3c(c2cc1C)CN(c1ncc(C(=O)NO)cn1)CC3` [Example 56, N-hydroxy-2-(7,8-dimethyl-1,3,4,5-tetrahydro-2H-pyrido[4,3-b]indol-2-yl)pyrimidine-5-carboxamide], in that order: 99.8% and 99%.
For `COc1ccc2[nH]c3c(c2c1)CN(c1ncc(C(=O)NO)cn1)CC3` [Example 57, N-hydroxy-2-(8-methoxy-1,3,4,5-tetrahydro-2H-pyrido[4,3-b]indol-2-yl)pyrimidine-5-carboxamide], in that order: 99.9% and 98.2%.
For `O=C(NO)c1cnc(N2CCc3c(n(CCO)c4ccccc34)C2)nc1` [Example 58, N-hydroxy-2-[9-(2-hydroxyethyl)-1,3,4,9-tetrahydro-2H-b-carbolin-2-yl]pyrimidine-5-carboxamide], in that order: 97.7% and 96.3%.
Turning to `CN1CCCC(n2c3c(c4ccccc42)CCN(c2ncc(C(=O)NO)cn2)C3)C1` (stereo not shown) [Example 59, N-hydroxy-2-[9-(1-methylpiperidin-3-yl)-1,3,4,9-tetrahydro-2H-b-carbolin-2-yl]pyrimidine-5-carboxamide], the “% Inhibition of HDAC @ 100 μM” value in the assay with HDAC amounted to 97.3%. For the same compound, in the assay with HCT116 cells, the inhibition at 100 µM stood at 97.5%.
For `O=C(NO)c1cnc(N2CCc3[nH]c4ccc(-c5cccs5)cc4c3C2)nc1` [Example 60, N-hydroxy-2-{8-[thien-2-yl]-1,3,4,5-tetrahydro-2H-pyrido[4,3-b]indol-2-yl}pyrimidine-5-carboxamide], in that order: 100% and 99%.
On to `Cc1cccc2c3c([nH]c12)CN(c1ncc(C(=O)NO)cn1)CC3` [Example 61, N-hydroxy-2-(8-methyl-1,3,4,9-tetrahydro-2H-b-carbolin-2-yl)pyrimidine-5-carboxamide], for which the “% Inhibition of HDAC @ 100 μM” value in the assay with HDAC turned out to be 99.9%. Further, the inhibition at 100 µM with HCT116 cells is 98.2%.
For the compound `O=C(NO)c1cnc(N2CCc3c([nH]c4cc(F)ccc34)C2)nc1` [Example 62, N-hydroxy-2-(7-fluoro-1,3,4,9-tetrahydro-2H-b-carbolin-2-yl)pyrimidine-5-carboxamide], the “% Inhibition of HDAC @ 100 μM” value in the assay with HDAC was determined as 99.9%. The inhibition at 100 µM in the assay with HCT116 cells was found to be 96.2%.
For `O=C(NO)c1cnc(N2CCc3c([nH]c4ccc(F)cc34)C2)nc1` [Example 63, N-hydroxy-2-(6-fluoro-1,3,4,9-tetrahydro-2H-b-carbolin-2-yl)pyrimidine-5-carboxamide], in that order: 99.8% and 98.9%.
For `O=C(NO)c1cnc(N2CCc3c([nH]c4ccc(OCc5ccccc5)cc34)C2)nc1` [Example 64, N-hydroxy-2-(6-benzyloxy-1,3,4,9-tetrahydro-2H-b-carbolin-2-yl)pyrimidine-5-carboxamide], in that order: 99.9% and 98.7%.
For `Cc1ccc2c3c([nH]c2c1)CN(c1ncc(C(=O)NO)cn1)CC3` [Example 65, N-hydroxy-2-(7-methyl-1,3,4,9-tetrahydro-2H-b-carbolin-2-yl)pyrimidine-5-carboxamide], in that order: 99.8% and 98.4%.
As for `Cc1ccc2c(c1)C1CCN(c3ncc(C(=O)NO)cn3)CC1N2` (stereo not shown) [Example 67, N-hydroxy-2-(6-methyl-1,3,4,4a,9,9a-hexahydro-2H-b-carbolin-2-yl)pyrimidine-5-carboxamide], the “% Inhibition of HDAC @ 100 μM” value in the assay with HDAC is given as 99.9%. In addition, the inhibition at 100 µM with HCT116 cells was 98.2%.
For `Cc1ccc2[nH]c3c(c2c1)CCN(c1ncc(C(=O)NO)cn1)C3` [Example 68, N-hydroxy-2-(6-methyl-1,3,4,9-tetrahydro-2H-b-carbolin-2-yl)pyrimidine-5-carboxamide], the “% Inhibition of HDAC @ 100 μM” value with HDAC is on record as 99.9%. Besides, in the assay on HCT116 cells, the inhibition at 100 µM worked out at 98.9%.
For `O=C(NO)c1cnc(N2CCc3c([nH]c4ccc(-c5cccc(CN6CCOCC6)c5)cc34)C2)nc1` [Example 70, N-hydroxy-2-{6-[3-(morpholin-4-ylmethyl)phenyl]-1,3,4,9-tetrahydro-2H-b-carbolin-2-yl}pyrimidine-5-carboxamide], in that order: 99.9% and 97.9%.
For `CN1CCN(Cc2cccc(-c3ccc4[nH]c5c(c4c3)CCN(c3ncc(C(=O)NO)cn3)C5)c2)CC1` [Example 71, N-hydroxy-2-{6-[3-((4-methylpiperazin-1-yl)methyl)phenyl]-1,3,4,9-tetrahydro-2H-b-carbolin-2-yl}pyrimidine-5-carboxamide], the “% Inhibition of HDAC @ 100 μM” value with HDAC is on record as 99.9%. Besides, in the assay with HCT116 cells, the inhibition at 100 µM was determined as 98.6%.
For `CN1CCN(Cc2ccc(-c3ccc4[nH]c5c(c4c3)CCN(c3ncc(C(=O)NO)cn3)C5)cc2)CC1` [Example 72, N-hydroxy-2-{6-[4-((4-methylpiperazin-1-yl)methyl)phenyl]-1,3,4,9-tetrahydro-2H-b-carbolin-2-yl}pyrimidine-5-carboxamide], in that order: 99.8% and 95.6%.
In the case of `CN1CCN(Cc2ccccc2-c2ccc3[nH]c4c(c3c2)CCN(c2ncc(C(=O)NO)cn2)C4)CC1` [Example 73, N-hydroxy-2-{6-[2-((4-methylpiperazin-1-yl)methyl)phenyl]-1,3,4,9-tetrahydro-2H-b-carbolin-2-yl}pyrimidine-5-carboxamide], the “% Inhibition of HDAC @ 100 μM” value in the assay with HDAC worked out at 99.6%. In the assay with HCT116 cells, the inhibition at 100 µM was 99.4%.
